# What was measured:
# [1] = test system: 518A2 (melanoma); assay: SRB cytotoxicity assay, 518A2; assay type: cell-based, human; conditions: for EC50: Homo sapiens, SRB assay, 96 h of treatment, 518A2; for Selectivity index (SI) 518A2: SI = EC50 (NIH 3T3)/EC50 (518A2)
# Description: (§1) The cytotoxicity of ursolic and betulinic carboxamides 3–30 was determined in sulforhodamine B (SRB) assays.
# (§2) The cell lines used were human cancer cell lines: 518A2 (melanoma), A2780 (ovarian carcinoma), HT29 (colon adenocarcinoma), MCF-7 (breast adenocarcinoma), 8505C (thyroid carcinoma) and non-malignant mouse fibroblasts NIH 3T3. Cultures were maintained as monolayers in RPMI 1640 medium with L-glutamine (Capricorn Scientific GmbH, Ebsdorfergrund, Germany) supplemented with 10% heat inactivated fetal bovineserum (Sigma-Aldrich Chemie GmbH, Steinheim, Germany) and penicillin/streptomycin (Capricorn Scientific GmbH, Ebsdorfergrund, Germany) at 37 °C in a humidified atmosphere with 5% CO2.
# (§3) The cytotoxicity of the compounds was evaluated using the sulforhodamine-B (Kiton-Red S, ABCR) micro culture colorimetric assay. Cells were seeded into 96-well plates on day 0 at appropriate cell densities to prevent confluence of the cells during the period of experiment. After 24 h, the cells were treated with 6 different concentrations (1, 3, 7, 12, 20 and 30 µM) minimum. The final concentration of DMSO/DMF never exceeded 0.5%, which was non-toxic to the cells. After a 96 h treatment, the supernatant medium from the 96-well plates was discarded, the cells were fixed with 10% trichloroacetic acid (TCA) and allowed to rest at 4 °C. After 24 h fixation, the cells were washed in a strip washer and dyed with SRB solution (100 µL, 0.4% in 1% acetic acid) for about 20 min. After dying, the plates were washed four times with 1% acetic acid to remove the excess of the dye and allowed to air-dry overnight. Tris base solution (200 µL, 10 mM) was added to each well and absorbance was measured at λ = 570 nm using a 96-well plate reader (Tecan Spectra, Crailsheim, Germany). The EC50 values were averaged from three independent experiments performed each in triplicate calculated from semi logarithmic dose response curves applying a non-linear 4P Hills-slope equation (GraphPad Prism5; variables top and bottom were set to 100 and 0, respectively).
# [2] = test system: A2780 (ovarian carcinoma); assay: SRB cytotoxicity assay, A2780; assay type: cell-based, human; conditions: for EC50: Homo sapiens, SRB assay, 96 h of treatment, A2780; for Selectivity index (SI) A2780: SI = EC50 (NIH 3T3)/EC50 (A2780)
# Description: as §1, §2, §3
# [3] = test system: HT29 (colon adenocarcinoma); assay: SRB cytotoxicity assay, HT29; assay type: cell-based, human; conditions: for EC50: Homo sapiens, HT-29, SRB assay, 96 h of treatment, HT29; for Selectivity index (SI) HT29: SI = EC50 (NIH 3T3)/EC50 (HT29)
# Description: as §1, §2, §3
# [4] = test system: MCF-7 (breast adenocarcinoma); assay: SRB cytotoxicity assay, MCF-7; assay type: cell-based, human; conditions: for EC50: Homo sapiens, MCF7, SRB assay, 96 h of treatment, MCF-7; for Selectivity index (SI) MCF-7: SI = EC50 (NIH 3T3)/EC50 (MCF-7)
# Description: as §1, §2, §3
# [5] = test system: 8505C (thyroid carcinoma); assay: SRB cytotoxicity assay, 8505C; assay type: cell-based, human; conditions: for EC50: Homo sapiens, SRB assay, 96 h of treatment, 8505C; for Selectivity index (SI) 8505C: SI = EC50 (NIH 3T3)/EC50 (8505C)
# Description: as §1, §2, §3
# [6] = test system: non-malignant mouse fibroblasts NIH 3T3; assay: SRB cytotoxicity assay, NIH 3T3; assay type: cell-based; conditions: NIH3T3, 96 h of treatment
# Description: as §1, §2, §3
SMILES,EC50 [1] [µM],Selectivity index (SI) 518A2 [1],EC50 [2] [µM],Selectivity index (SI) A2780 [2],EC50 [3] [µM],Selectivity index (SI) HT29 [3],EC50 [4] [µM],Selectivity index (SI) MCF-7 [4],EC50 [5] [µM],Selectivity index (SI) 8505C [5],EC50 [6] [µM],melting point
"C=C(C)C1CC[C@]2(C(=O)NCCCCN)CC[C@]3(C)C(CCC4[C@@]5(C)CC[C@H](O)C(C)(C)C5CC[C@]43C)C12 (stereo partly drawn) [Compound 29, (3β)-N-(4-Aminobutyl)-3-hydroxy-lup-20(29)-en-28-amide]",0.4 ± 0.06,1.25,0.6 ± 0.1,0.83,0.4 ± 0.1,1.25,0.6 ± 0.1,0.83,0.8 ± 0.26,0.63,0.5 ± 0.1,130 to 133 °C
"C=C(C)C1CC[C@]2(C(=O)NCCN3CCNCC3)CC[C@]3(C)C(CCC4[C@@]5(C)CC[C@H](O)C(C)(C)C5CC[C@]43C)C12 (stereo partly drawn) [Compound 28, (3β)-N-(2-Piperazin-1-ylethyl)-3-hydroxy-lup-20(29)-en-28-amide]",0.9 ± 0.21,0.89,0.8 ± 0.04,1.00,0.8 ± 0.18,1.00,0.3 ± 0.02,2.67,0.85 ± 0.17,0.94,0.8 ± 0.22,146 to 148 °C (dec.)
"C[C@@H]1CC[C@]2(C(=O)NCCN(C)C)CC[C@]3(C)C(=CCC4[C@@]5(C)CC[C@H](O)C(C)(C)C5CC[C@]43C)C2[C@H]1C (stereo partly drawn) [Compound 11, (3β)-N-[2-(Dimethylamino)ethyl]-3-hydroxy-urs-12-en-28-amide]",6.6 ± 0.3,1.02,4.3 ± 0.5,1.56,3 ± 0.2,2.23,4.2 ± 0.9,1.60,7.3 ± 0.2,0.92,6.7 ± 1.3,270 to 273 °C (dec.)
"C=C(C)C1CC[C@]2(C(=O)NCCN3CCCC3)CC[C@]3(C)C(CCC4[C@@]5(C)CC[C@H](OC(C)=O)C(C)(C)C5CC[C@]43C)C12 (stereo partly drawn) [Compound 19, (3β)-N-(2-Pyrrolidin-1-ylethyl)-3-acetyloxy-lup-20(29)-en-28-amide]",1.5 ± 0.1,0.80,1.4 ± 0.09,0.86,0.5 ± 0.08,2.40,1.2 ± 0.2,1.00,1.6 ± 0.09,0.75,1.2 ± 0.07,143 to 145 °C
"C=C(C)C1CC[C@]2(C(=O)NCCCCN)CC[C@]3(C)C(CCC4[C@@]5(C)CC[C@H](OC(C)=O)C(C)(C)C5CC[C@]43C)C12 (stereo partly drawn) [Compound 22, (3β)-N-(4-Aminobutyl)-3-acetyloxy-lup-20(29)-en-28-amide]",1 ± 0.03,0.60,1.1 ± 0.03,0.55,0.6 ± 0.05,1.00,0.8 ± 0.04,0.75,1.4 ± 0.05,0.43,0.6 ± 0.04,133 to 135 °C
"C[C@@H]1CC[C@]2(C(=O)NCCCCN)CC[C@]3(C)C(=CCC4[C@@]5(C)CC[C@H](O)C(C)(C)C5CC[C@]43C)C2[C@H]1C (stereo partly drawn) [Compound 15, (3β)-N-(4-Aminobutyl)-3-hydroxy-urs-12-en-28-amide]",9.3 ± 0.1,0.60,5.4 ± 1.4,1.04,2.1 ± 0.3,2.67,5.5 ± 1.1,1.02,10.8 ± 1.2,0.52,5.6 ± 0.3,177 to 180 °C
"C[C@@H]1CC[C@]2(C(=O)NCCN3CCNCC3)CC[C@]3(C)C(=CCC4[C@@]5(C)CC[C@H](O)C(C)(C)C5CC[C@]43C)C2[C@H]1C (stereo partly drawn) [Compound 14, (3β)-N-(2-Piperazin-1-ylethyl)-3-hydroxy-urs-12-en-28-amide]",7 ± 0.4,0.94,4.9 ± 0.4,1.35,2.8 ± 0.4,2.36,4.4 ± 0.1,1.50,7.8 ± 0.5,0.85,6.6 ± 0.6,214 to 217 °C
"C=C(C)C1CC[C@]2(C(=O)NCCN(C)C)CC[C@]3(C)C(CCC4[C@@]5(C)CC[C@H](OC(C)=O)C(C)(C)C5CC[C@]43C)C12 (stereo partly drawn) [Compound 18, (3β)-N-[2-(Dimethylamino)ethyl]-3-acetyloxy-lup-20(29)-en-28-amide]",1.3 ± 0.1,0.77,1.1 ± 0.05,0.91,0.3 ± 0.02,3.33,1 ± 0.3,1.00,1.4 ± 0.15,0.71,1 ± 0.4,108 to 110 °C
"CC(=O)O[C@H]1CC[C@@]2(C)C(CC[C@]3(C)C2CC=C2C4[C@@H](C)[C@H](C)CC[C@]4(C(=O)NCCOCCN)CC[C@]23C)C1(C)C (stereo partly drawn) [Compound 9, (3β)-N-[2-(2-Aminoethoxy)ethyl]-3-acetyloxy-urs-12-en-28-amide]",3.5 ± 0.6,0.89,3.4 ± 0.5,0.91,1.6 ± 0.1,1.93,2.3 ± 0.4,1.35,5.8 ± 0.4,0.53,3.1 ± 0.4,91 to 94 °C
"C[C@@H]1CC[C@]2(C(=O)NCCN)CC[C@]3(C)C(=CCC4[C@@]5(C)CC[C@H](O)C(C)(C)C5CC[C@]43C)C2[C@H]1C (stereo partly drawn) [Compound 10, (3β)-N-(2-Aminoethyl)-3-hydroxy-urs-12-en-28-amide]",3.7 ± 0.5,1.05,3.3 ± 0.1,1.18,2 ± 0.1,1.95,3.2 ± 0.3,1.22,3.7 ± 0.4,1.05,3.9 ± 0.1,139 to 142 °C
"CC(=O)O[C@H]1CC[C@@]2(C)C(CC[C@]3(C)C2CC=C2C4[C@@H](C)[C@H](C)CC[C@]4(C(=O)NCCN)CC[C@]23C)C1(C)C (stereo partly drawn) [Compound 3, (3β)-N-(2-Aminoethyl)-3-acetyloxy-urs-12-en-28-amide]",2.7 ± 0.1,0.96,2.3 ± 0.1,1.13,1.8 ± 0.1,1.44,2 ± 0.1,1.30,4.1 ± 0.4,0.63,2.6 ± 0.3,202 to 205 °C
"CC(=O)O[C@H]1CC[C@@]2(C)C(CC[C@]3(C)C2CC=C2C4[C@@H](C)[C@H](C)CC[C@]4(C(=O)NCCN4CCCC4)CC[C@]23C)C1(C)C (stereo partly drawn) [Compound 5, (3β)-N-(2-Pyrrolidin-1-ylethyl)-3-acetyloxy-urs-12-en-28-amide]",4.5 ± 0.2,0.73,3.1 ± 0.2,1.06,2.1 ± 0.2,1.57,2.9 ± 0.7,1.14,4.3 ± 0.2,0.77,3.3 ± 0.3,156 to 159 °C

# Reference: PMC6222718, “Ethylenediamine Derived Carboxamides of Betulinic and Ursolic Acid as Potential Cytotoxic Agents” (Molecules : A Journal of Synthetic Chemistry and Natural …, 2018)
